Earlier results, collected in publication PMC2637266, “Quantification of gamma-secretase modulation differentiates inhibitor compound selectivity between two substrates Notch and amyloid precursor protein” (Molecular Brain, 2008).

How the values were obtained:
[1] = test system: γ-secretase substrates APP, ErbB-4, and Notch; set-up: method as in PMID 12777371; details: cited from earlier work
plasma Aβ40 = test system: plasma Aβ40; set-up: method as in PMID 18090456, PMID 16505324, PMID 18695053; details: AD patients; cited from earlier work

CC(C)Cc1ccc(C(C)C(=O)O)cc1 (stereo not shown) [ibuprofen]
generation of intracellular domains (ICDs) of APP, ErbB-4, and Notch [1]: without affecting the generation

COc1ccc2c(c1)c(CC(=O)O)c(C)n2C(=O)c1ccc(Cl)cc1 [indomethacin]
cleavage of γ-secretase substrates at the middle of transmembrane domain [1]: specifically block the cleavage | generation of intracellular domains (ICDs) of APP, ErbB-4, and Notch [1]: without affecting the generation

CC(C)[C@H](O)C(=O)N[C@@H](C)C(=O)N[C@@H]1C(=O)N(C)CCc2ccccc21.O.O [LY450139 dihydrate]
plasma Aβ40 (plasma Aβ40): reduces plasma Aβ40 | tolerability (plasma Aβ40): well tolerated

CSc1ccc(/C=C2/C(C)=C(CC(=O)O)c3cc(F)ccc32)cc1 [sulindac sulphide]
cleavage of γ-secretase substrates at the middle of transmembrane domain [1]: specifically block the cleavage | generation of intracellular domains (ICDs) of APP, ErbB-4, and Notch [1]: without affecting the generation
